The values that follow come from PubChem BioAssay AID1259407 (Chemical Carcinogenesis Research Information System (CCRIS), 2018).

Each structure is given as a SMILES string. Activity calls are given as the source filed them. The rule behind the calls is not given here.

For this data set, the system named is CCRIS mutagenicity, Ames/micronucleus/aberration tests. Kind of data set: CCRIS mutagenicity studies.
The mark [1] stands for this setting: Test System: AMES SALMONELLA TYPHIMURIUM, Strain/Indicator: TA97, Metabolic Activation: NONE, Method: PREINCUBATION
Where [2] appears, read: Test System: AMES SALMONELLA TYPHIMURIUM, Strain/Indicator: TA98, Metabolic Activation: NONE, Method: STANDARD PLATE.
Setting [3] is: Test System: AMES SALMONELLA TYPHIMURIUM, Strain/Indicator: TA100, Metabolic Activation: NONE, Method: PREINCUBATION

As to `O=C(O)/C=C\C(=O)O`, the mutagenic call under setting [1] was “inactive; negative”; the mutagenic call (Test System: AMES SALMONELLA TYPHIMURIUM, Strain/Indicator: TA97, Metabolic Activation: RAT, LIVER, S-9, PHENOBARBITAL AND 5,6-BENZOFLAVONE, Method: PREINCUBATION) was “inactive; negative”; the mutagenic call (Test System: AMES SALMONELLA TYPHIMURIUM, Strain/Indicator: TA98, Metabolic Activation: NONE, Method: PREINCUBATION) is “inactive; negative”; the mutagenic call under setting [2] was “inactive; negative”; the mutagenic call (Test System: AMES SALMONELLA TYPHIMURIUM, Strain/Indicator: TA98, Metabolic Activation: RAT, LIVER, S-9, AROCLOR 1254, Method: STANDARD PLATE) was “inactive; negative”; the mutagenic call (Test System: AMES SALMONELLA TYPHIMURIUM, Strain/Indicator: TA98, Metabolic Activation: RAT, LIVER, S-9, PHENOBARBITAL AND 5,6-BENZOFLAVONE, Method: PREINCUBATION) was “inactive; negative”. In addition, the mutagenic call by setting is: under setting [3], “inactive; negative”; (Test System: AMES SALMONELLA TYPHIMURIUM, Strain/Indicator: TA100, Metabolic Activation: NONE, Method: STANDARD PLATE) “inactive; negative”; (Test System: AMES SALMONELLA TYPHIMURIUM, Strain/Indicator: TA100, Metabolic Activation: RAT, LIVER, S-9, AROCLOR 1254, Method: STANDARD PLATE) “inactive; negative”; (Test System: AMES SALMONELLA TYPHIMURIUM, Strain/Indicator: TA100, Metabolic Activation: RAT, LIVER, S-9, PHENOBARBITAL AND 5,6-BENZOFLAVONE, Method: PREINCUBATION) “inactive; negative”; (Test System: AMES SALMONELLA TYPHIMURIUM, Strain/Indicator: TA102, Metabolic Activation: NONE, Method: PREINCUBATION) “inactive; negative”; (Test System: AMES SALMONELLA TYPHIMURIUM, Strain/Indicator: TA102, Metabolic Activation: RAT, LIVER, S-9, PHENOBARBITAL AND 5,6-BENZOFLAVONE, Method: PREINCUBATION) “inactive; negative”. Also, the mutagenic call was “inactive; negative” (Test System: AMES SALMONELLA TYPHIMURIUM, Strain/Indicator: TA104, Metabolic Activation: NONE, Method: PREINCUBATION); “inactive; negative” (Test System: AMES SALMONELLA TYPHIMURIUM, Strain/Indicator: TA104, Metabolic Activation: RAT, LIVER, S-9, PHENOBARBITAL AND 5,6-BENZOFLAVONE, Method: PREINCUBATION); “inactive; negative” (Test System: AMES SALMONELLA TYPHIMURIUM, Strain/Indicator: TA1535, Metabolic Activation: NONE, Method: STANDARD PLATE); “inactive; negative” (Test System: AMES SALMONELLA TYPHIMURIUM, Strain/Indicator: TA1535, Metabolic Activation: RAT, LIVER, S-9, AROCLOR 1254, Method: STANDARD PLATE); “inactive; negative” (Test System: AMES SALMONELLA TYPHIMURIUM, Strain/Indicator: TA1537, Metabolic Activation: NONE, Method: STANDARD PLATE); “inactive; negative” (Test System: AMES SALMONELLA TYPHIMURIUM, Strain/Indicator: TA1537, Metabolic Activation: RAT, LIVER, S-9, AROCLOR 1254, Method: STANDARD PLATE). For the same compound, the mutagenic call runs as follows: (Test System: AMES SALMONELLA TYPHIMURIUM, Strain/Indicator: TA1538, Metabolic Activation: NONE, Method: STANDARD PLATE) “inactive; negative”; (Test System: AMES SALMONELLA TYPHIMURIUM, Strain/Indicator: TA1538, Metabolic Activation: RAT, LIVER, S-9, AROCLOR 1254, Method: STANDARD PLATE) “inactive; negative”.

On to `CC12CCC(CC1=O)C2(C)C` (centres undefined) (tested in a mixture with another compound), for which the mutagenic call runs as follows: (End Point: IN VITRO CHROMOSOMAL ABERRATIONS, Test System: SYRIAN HAMSTER EMBRYO (SHE) CELLS, Metabolic Activation: NONE) “active; positive (structural changes)”; (End Point: In vitro chromosomal aberrations, Test System: D824 human dental pulp cells, Metabolic Activation: Rat, Liver, Postmitochondrial supernate (5%)) “inactive; negative”.

Consider `C#Cc1ccc2c3c(cccc13)-c1ccccc1-2`, for which the mutagenic call by setting is: under setting [2], “active; positive”; (Test System: AMES SALMONELLA TYPHIMURIUM, Strain/Indicator: TA98, Metabolic Activation: RAT, LIVER, S-9, AROCLOR 1254 (2%), Method: STANDARD PLATE) “active; positive”.

Regarding `O=[N+]([O-])c1ccc(/C=N\O)o1`, the mutagenic call was “active; positive” (Test System: E. COLI, Strain/Indicator: WP2 UVRA, Metabolic Activation: NONE, Method: SPOT) and “active; positive” (Test System: E. COLI, Strain/Indicator: WP2 UVRA, Metabolic Activation: NONE, Method: STANDARD PLATE).

For `O=[N+]([O-])CCO`, the mutagenic call reads like this: (Test System: AMES SALMONELLA TYPHIMURIUM, Strain/Indicator: TA97, Metabolic Activation: HAMSTER, LIVER, S-9, AROCLOR 1254 (5 OR 30%), Method: PREINCUBATION) “inactive; negative”; (Test System: AMES SALMONELLA TYPHIMURIUM, Strain/Indicator: TA97, Metabolic Activation: HAMSTER, LIVER, S-9, AROCLOR 1254 (10%), Method: PREINCUBATION) “inactive; negative”; under setting [1], “inactive; negative”; (Test System: AMES SALMONELLA TYPHIMURIUM, Strain/Indicator: TA97, Metabolic Activation: RAT, LIVER, S-9, AROCLOR 1254 (5 OR 30%), Method: PREINCUBATION) “inactive; negative”; (Test System: AMES SALMONELLA TYPHIMURIUM, Strain/Indicator: TA97, Metabolic Activation: RAT, LIVER, S-9, AROCLOR 1254 (10%), Method: PREINCUBATION) “inactive; negative”; (Test System: AMES SALMONELLA TYPHIMURIUM, Strain/Indicator: TA98, Metabolic Activation: HAMSTER, LIVER, S-9, AROCLOR 1254 (10%), Method: PREINCUBATION) “inactive; negative”. For the same compound, the mutagenic call is, setting by setting: (Test System: AMES SALMONELLA TYPHIMURIUM, Strain/Indicator: TA98, Metabolic Activation: RAT, LIVER, S-9, AROCLOR 1254 (10%), Method: PREINCUBATION) “inactive; negative”; (Test System: AMES SALMONELLA TYPHIMURIUM, Strain/Indicator: TA100, Metabolic Activation: HAMSTER, LIVER, S-9, AROCLOR 1254 (10%), Method: PREINCUBATION) “inactive; negative”; (Test System: AMES SALMONELLA TYPHIMURIUM, Strain/Indicator: TA100, Metabolic Activation: HAMSTER, LIVER, S-9, AROCLOR 1254 (30%), Method: PREINCUBATION) “inactive; negative”; under setting [3], “inactive; negative”; (Test System: AMES SALMONELLA TYPHIMURIUM, Strain/Indicator: TA100, Metabolic Activation: RAT, LIVER, S-9, AROCLOR 1254 (10%), Method: PREINCUBATION) “inactive; negative”; (Test System: AMES SALMONELLA TYPHIMURIUM, Strain/Indicator: TA100, Metabolic Activation: RAT, LIVER, S-9, AROCLOR 1254 (30%), Method: PREINCUBATION) “inactive; negative”. In addition, the mutagenic call is, setting by setting: (Test System: AMES SALMONELLA TYPHIMURIUM, Strain/Indicator: TA1535, Metabolic Activation: HAMSTER, LIVER, S-9, AROCLOR 1254 (10%), Method: PREINCUBATION) “inactive; negative”; (Test System: AMES SALMONELLA TYPHIMURIUM, Strain/Indicator: TA1535, Metabolic Activation: HAMSTER, LIVER, S-9, AROCLOR 1254 (30%), Method: PREINCUBATION) “inactive; negative”; (Test System: AMES SALMONELLA TYPHIMURIUM, Strain/Indicator: TA1535, Metabolic Activation: NONE, Method: PREINCUBATION) “inactive; negative”; (Test System: AMES SALMONELLA TYPHIMURIUM, Strain/Indicator: TA1535, Metabolic Activation: RAT, LIVER, S-9, AROCLOR 1254 (10%), Method: PREINCUBATION) “inactive; negative”; (Test System: AMES SALMONELLA TYPHIMURIUM, Strain/Indicator: TA1535, Metabolic Activation: RAT, LIVER, S-9, AROCLOR 1254 (30%), Method: PREINCUBATION) “inactive; negative”; (Test System: AMES SALMONELLA TYPHIMURIUM, Strain/Indicator: TA1537, Metabolic Activation: HAMSTER, LIVER, S-9, AROCLOR 1254 (10%), Method: PREINCUBATION) “inactive; negative”. Further, the mutagenic call by setting is: (Test System: AMES SALMONELLA TYPHIMURIUM, Strain/Indicator: TA1537, Metabolic Activation: NONE, Method: PREINCUBATION) “inactive; negative”; (Test System: AMES SALMONELLA TYPHIMURIUM, Strain/Indicator: TA1537, Metabolic Activation: RAT, LIVER, S-9, AROCLOR 1254 (10%), Method: PREINCUBATION) “inactive; negative”; (Test System: AMES SALMONELLA TYPHIMURIUM, Strain/Indicator: TA1538, Metabolic Activation: HAMSTER, LIVER, S-9, AROCLOR 1254 (30%), Method: PREINCUBATION) “active; positive”; (Test System: AMES SALMONELLA TYPHIMURIUM, Strain/Indicator: TA1538, Metabolic Activation: NONE, Method: PREINCUBATION) “active; positive”; (Test System: AMES SALMONELLA TYPHIMURIUM, Strain/Indicator: TA1538, Metabolic Activation: RAT, LIVER, S-9, AROCLOR 1254 (30%), Method: PREINCUBATION) “active; positive”.
